# Reference: patent US8048879B2, “Substituted 4,5,6,7-tetrahydro-isoxazolo[4,5-c]pyridine compounds and use thereof for producing medicaments” (Gruenenthal GmbH, priority 2005, dated 2011)
# Target: T1, 5-HT transporter (Rattus norvegicus, UniProt P31652)
# T1 construct: from tissue; host or cells: rat brain (medulla and pons), synaptosomes, P2 fraction
# Assay: 5-HT uptake inhibition, synaptosomes from rat brain (medulla and pons)
# Format: biochemical
# Method in brief: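 Freshly isolated rat brain synaptosomes (P2 fraction): hypothalamus for NA uptake, medulla/pons for 5-HT uptake. Uptake of [3H]-NA (7.5 min) or [3H]-5-HT (5 min) at room temperature under O2, stopped by filtration over GF/B. Retained radioactivity counted by scintillation.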
# T1 sequence (P31652 whole entry): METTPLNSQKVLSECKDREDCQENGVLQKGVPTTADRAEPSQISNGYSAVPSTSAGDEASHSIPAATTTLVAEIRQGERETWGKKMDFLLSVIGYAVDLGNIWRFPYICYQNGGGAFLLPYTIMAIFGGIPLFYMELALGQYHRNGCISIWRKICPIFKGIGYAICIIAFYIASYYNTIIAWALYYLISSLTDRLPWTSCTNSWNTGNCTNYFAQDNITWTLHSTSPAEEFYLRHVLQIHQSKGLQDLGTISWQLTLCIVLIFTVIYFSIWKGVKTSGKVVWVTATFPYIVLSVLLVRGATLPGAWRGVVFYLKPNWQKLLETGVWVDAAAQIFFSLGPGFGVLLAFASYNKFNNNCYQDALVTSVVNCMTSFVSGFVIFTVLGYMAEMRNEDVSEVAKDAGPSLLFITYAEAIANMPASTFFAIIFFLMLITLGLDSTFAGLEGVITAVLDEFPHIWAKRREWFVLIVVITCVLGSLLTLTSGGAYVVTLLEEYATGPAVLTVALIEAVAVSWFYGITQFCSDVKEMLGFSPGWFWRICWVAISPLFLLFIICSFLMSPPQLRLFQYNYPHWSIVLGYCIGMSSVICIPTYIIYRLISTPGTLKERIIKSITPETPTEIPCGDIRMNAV
SMILES,inhibition at 10 µM,"5-HT uptake (rat), 10 μM, % inhibition"
"O=C(NCC1CC1)c1noc2c1CN(C(=S)NCc1ccc(Cl)cc1)CC2 [Example 129, 5-(4-chloro-benzylthiocarbamoyl)-4,5,6,7-tetrahydro-isoxazolo[4,5-c]pyridine-3-carboxylic acid cyclopropylmethyl amide]",75%,–
"Cc1ccc(CNC(=O)c2noc3c2CN(C(=S)Nc2c(F)c(F)c(F)c(F)c2F)CC3)o1 [Example 133, 5-pentafluorophenylthiocarbamoyl-4,5,6,7-tetrahydro-isoxazolo[4,5-c]pyridine-3-carboxylic acid (5-methyl-furan-2-ylmethyl) amide]",–,63%
"CCOC(=O)CCNC(=O)c1noc2c1CN(C(=S)NCC1CCCCC1)CC2 [Example 134, 3-{[5-(cyclohexylmethyl-thiocarbamoyl)-4,5,6,7-tetrahydro-isoxazolo[4,5-c]pyridine-3-carbonyl]-amino}-propionic acid ethyl ester]",61%,–

# Target: T2, NA transporter (Rattus norvegicus, UniProt Q9WTR4)
# T2 construct: from tissue; host or cells: rat brain (hypothalamus), synaptosomes, P2 fraction
# Assay: Noradrenalin (NA) uptake inhibition, synaptosomes from rat brain (hypothalamus)
# Format: biochemical
# Text: b) Method for Determining Noradrenalin and 5-HT Uptake Inhibition:
# Synaptosomes from rat brain regions are freshly isolated for in vitro studies, as described in the publication “The isolation of nerve endings from brain” by E. G. Gray and V. P. Whittaker, J. Anatomy 96, pages 79-88, 1962. The corresponding literature description is hereby introduced as a reference and is deemed to be part of the disclosure.
# The tissue (hypothalamus for the determination of noradrenalin uptake inhibition and medulla and pons for the determination of 5-HT uptake inhibition) is homogenised in ice-cooled 0.32 M sucrose (100 mg of tissue/1 mL) in a glass homogeniser with Teflon pestle using five complete up and down strokes at 840 revolutions/minute.
# The homogenate is centrifuged at 4° C. for 10 minutes at 1000 g. After subsequent centrifugation at 17000 g for 55 minutes, the synaptosomes (P2 fraction) are obtained, which are resuspended in 0.32 M […] (0.5 mL/100 mg of original weight).
# The particular uptake is measured in a 96-well microtitre plate. The volume is 250 μL and the incubation proceeds at room temperature (approx. 20-25° C.) under an O2 atmosphere.
# The incubation time is 7.5 minutes for [^3H]-NA and 5 minutes for [^3H]-5-HT. The 96 samples are then filtered through a Unifilter GF/B® microtitre plate (Packard) and washed with 200 mL of incubated buffer using a “Brabdel MPXRI-96T Cell-Harvester”. The Unifilter GF/B plate is dried for 1 hour at 55° C. The plate is then sealed with a Back Seal® (Packard) and 35 μL of scintillation fluid are added per well (Ultima Gold®, Packard). After sealing with a top Seal® (Packard) and establishing an equilibrium (around 5 hours), radioactivity is determined in a “Trilux 1450 Microbeta” (Wallac).
# The quantity of protein used in the above determination corresponds to the values known from the literature, as for example described in “Protein measurement with the folin phenol reagent”, Lowry et al., J. Biol. Chem., 193, 265-275, 1951.
# A detailed description of the method may additionally be found in the literature, for example in M. Ch. Frink, H.-H. Hennies, W. Engelberger, M. Haurand and B. Wilffert (1996) Arzneim.-Forsch./Drug Res. 46 (III), 11, 1029-1036.
# The following characteristics were determined for the NA or 5-HT transporter: […]
# T2 sequence (Q9WTR4 1-597): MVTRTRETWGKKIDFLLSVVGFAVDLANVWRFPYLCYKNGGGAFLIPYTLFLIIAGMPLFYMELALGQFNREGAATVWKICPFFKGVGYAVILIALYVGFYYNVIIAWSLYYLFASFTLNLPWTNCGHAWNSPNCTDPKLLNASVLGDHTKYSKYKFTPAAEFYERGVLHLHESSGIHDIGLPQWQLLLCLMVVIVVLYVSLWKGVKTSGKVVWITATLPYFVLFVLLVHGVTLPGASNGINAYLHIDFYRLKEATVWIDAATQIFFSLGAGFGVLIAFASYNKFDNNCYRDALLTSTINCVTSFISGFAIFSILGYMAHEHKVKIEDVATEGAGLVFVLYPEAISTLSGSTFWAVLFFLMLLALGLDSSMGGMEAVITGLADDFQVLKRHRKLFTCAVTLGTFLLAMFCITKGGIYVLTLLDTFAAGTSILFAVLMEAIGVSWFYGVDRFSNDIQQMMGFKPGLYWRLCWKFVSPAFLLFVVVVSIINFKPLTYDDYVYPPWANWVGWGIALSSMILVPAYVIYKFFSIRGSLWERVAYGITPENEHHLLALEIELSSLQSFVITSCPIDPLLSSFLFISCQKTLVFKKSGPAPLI
SMILES,"NA Uptake (rat), 10 μM, % inhibition",inhibition at 10 µM
"COc1ccc(Cl)cc1NC(=O)N1CCc2onc(C(=O)NCC(C)C)c2C1 [Example 24, 6,7-dihydro-4H-isoxazolo[4,5-c]pyridine-3,5-dicarboxylic acid 5-[(5-chloro-2-methoxyphenyl) amide] 3-(isobutyl-amide)]",51%,–
"CCC(C)(CC(=O)O)CC(=O)N1CCc2onc(C(=O)Nc3ccccc3)c2C1 (centres unmarked) [Example 29, 3-ethyl-3-methyl-5-oxo-5-(3-phenylcarbamoyl-6,7-dihydro-4H-isoxazolo[4,5-c]pyridin-5-yl)-pentanoic acid]",–,44%
"O=C(c1noc2c1CN(S(=O)(=O)c1ccc(OC(F)(F)F)cc1)CC2)N(CCc1ccccc1)Cc1ccccc1 [Example 32, 5-(4-trifluoromethoxy-benzenesulfonyl)-4,5,6,7-tetrahydro-isoxazolo[4,5-c]pyridine-3-carboxylic acid benzyl-phenethyl amide]",–,82%
"O=C(NCCCc1ccccc1)c1noc2c1CN(S(=O)(=O)c1ccc(F)cc1)CC2 [Example 35, 5-(4-fluoro-benzenesulfonyl)-4,5,6,7-tetrahydro-isoxazolo[4,5-c]pyridine-3-carboxylic acid (3-phenyl-propyl) amide]",–,73%
"CC(CCc1ccccc1)NC(=O)c1noc2c1CN(S(=O)(=O)c1ccc(F)cc1)CC2 (centres unmarked) [Example 38, 5-(4-fluoro-benzenesulfonyl)-4,5,6,7-tetrahydro-isoxazolo[4,5-c]pyridine-3-carboxylic acid (1-methyl-3-phenyl-propyl) amide]",–,66%
"O=C(NC1CCN(Cc2ccc(C(F)(F)F)cc2)C1)c1noc2c1CN(S(=O)(=O)c1ccc(F)cc1)CC2 (centres unmarked) [Example 39, 5-(4-fluoro-benzenesulfonyl)-4,5,6,7-tetrahydro-isoxazolo[4,5-c]pyridine-3-carboxylic acid [1-(4-trifluoromethyl-benzyl)-pyrrolidin-3-yl]amide]",–,61%
"O=C(NC1CCCC1OCc1ccccc1)c1noc2c1CN(S(=O)(=O)c1cc(Cl)ccc1Cl)CC2 (centres unmarked) [Example 40, 5-(2,5-dichloro-benzenesulfonyl)-4,5,6,7-tetrahydro-isoxazolo[4,5-c]pyridine-3-carboxylic acid (2-benzyloxy-cyclopentyl) amide]",–,71%
CCOC(=O)N1CCC(NC(=O)c2noc3c2CN(S(=O)(=O)c2ccc(F)cc2)CC3)CC1 [Example 43],63%,–
"O=C(NC1CCCC1)c1noc2c1CN(C(=O)C=Cc1ccccc1)CC2 [Example 44, 5-(3-phenyl-acryloyl)-4,5,6,7-tetrahydro-isoxazolo[4,5-c]pyridine-3-carboxylic acid cyclopentyl amide]",–,76%
"O=C(Cc1ccc(F)c(F)c1)N1CCN(C(=O)c2noc3c2CN(S(=O)(=O)c2ccc(F)cc2)CC3)CC1 [Example 48, 2-(3,4-difluoro-phenyl)-1-{4-[5-(4-fluoro-benzenesulfonyl)-4,5,6,7-tetrahydro-isoxazolo[4,5-c]pyridine-3-carbonyl]-piperazin-1-yl}-ethanone]",–,61%
"CN(C)S(=O)(=O)N1CCc2onc(C(=O)N3CCOCC3)c2C1 [Example 49, 3-(morpholine-4-carbonyl)-6,7-dihydro-4H-isoxazolo[4,5-c]pyridine-5-sulfonic acid dimethyl amide]",–,73%
"O=C(NCc1cccs1)c1noc2c1CN(C(=O)c1ccco1)CC2 [Example 50, 5-(furan-2-carbonyl)-4,5,6,7-tetrahydro-isoxazolo[4,5-c]pyridine-3-carboxylic acid (thiophen-2-ylmethyl) amide]",–,71%
"CC12CCC(C(=O)N3CCc4onc(C(=O)NCCN5CCCC5)c4C3)(OC1=O)C2(C)C (centres unmarked) [Example 51, 5-(4,7,7-trimethyl-3-oxo-2-oxa-bicyclo[2.2.1]heptane-1-carbonyl)-4,5,6,7-tetrahydro-isoxazolo[4,5-c]pyridine-3-carboxylic acid (2-pyrrolidin-1-yl-ethyl) amide]",–,73%
"O=C(NCCN1CCOCC1)c1noc2c1CN(S(=O)(=O)c1cc(Cl)c(Cl)s1)CC2 [Example 63, 5-(4,5-dichloro-thiophene-2-sulfonyl)-4,5,6,7-tetrahydro-isoxazolo[4,5-c]pyridine-3-carboxylic acid (2-morpholin-4-yl-ethyl) amide]",–,77%
"O=C(NC1CCCC1)c1noc2c1CN(C(=O)COc1ccc(Cl)cc1)CC2 [Example 81, 5-[2-(4-chlorophenoxy)-acetyl]-4,5,6,7-tetrahydro-isoxazolo[4,5-c]pyridine-3-carboxylic acid cyclopentyl amide]",–,68%
"CC(CCc1ccccc1)NC(=O)c1noc2c1CN(S(=O)(=O)c1ccc(OC(F)(F)F)cc1)CC2 (centres unmarked) [Example 96, 5-(4-trifluoromethoxy-benzenesulfonyl)-4,5,6,7-tetrahydro-isoxazolo[4,5-c]pyridine-3-carboxylic acid (1-methyl-3-phenyl-propyl) amide]",–,63%
"O=C(NC1CCN(Cc2ccc(C(F)(F)F)cc2)C1)c1noc2c1CN(S(=O)(=O)c1ccccc1)CC2 (centres unmarked) [Example 103, 5-benzenesulfonyl-4,5,6,7-tetrahydro-isoxazolo[4,5-c]pyridine-3-carboxylic acid [1-(4-trifluoromethyl-benzyl)-pyrrolidin-3-yl] amide]",–,91%
"CC(CNC(=O)c1noc2c1CN(S(=O)(=O)c1cccs1)CC2)c1ccccc1 (centres unmarked) [Example 104, 5-(thiophene-2-sulfonyl)-4,5,6,7-tetrahydro-isoxazolo[4,5-c]pyridine-3-carboxylic acid (2-phenyl-propyl) amide]",–,77%
"O=C(NCCc1ccccc1)c1noc2c1CN(C(=O)c1ccc(F)c(Cl)c1)CC2 [Example 105, 5-(3-chloro-4-fluoro-benzoyl)-4,5,6,7-tetrahydro-isoxazolo[4,5-c]pyridine-3-carboxylic acid phenethyl amide]",–,62%
"COc1ccc(OCCNC(=O)c2noc3c2CN(S(=O)(=O)c2ccc(C)cc2)CC3)cc1 [Example 109, 5-(toluene-4-sulfonyl)-4,5,6,7-tetrahydro-isoxazolo[4,5-c]pyridine-3-carboxylic acid [2-(4-methoxy-phenoxy)-ethyl] amide]",–,64%
"O=C(c1noc2c1CN(S(=O)(=O)c1cc(Cl)ccc1Cl)CC2)N1CCN(c2ccccc2Cl)CC1 [Example 110, [4-(2-chlorophenyl)-piperazin-1-yl]-[5-(2,5-dichloro-benzenesulfonyl)-4,5,6,7-tetrahydro-isoxazolo[4,5-c]pyridin-3-yl]-methanone]",–,86%
"CCOC(=O)CCNC(=O)c1noc2c1CN(C(=O)c1c(F)ccc(C)c1F)CC2 [Example 111, 3-{[5-(2,6-difluoro-3-methyl-benzoyl)-4,5,6,7-tetrahydro-isoxazolo[4,5-c]pyridine-3-carbonyl]-amino}-propionic acid ethyl ester]",–,66%
"O=C(NCCN1CCCC1)c1noc2c1CN(S(=O)(=O)c1cccc(Cl)c1)CC2 [Example 118, 5-(3-chloro-benzenesulfonyl)-4,5,6,7-tetrahydro-isoxazolo[4,5-c]pyridine-3-carboxylic acid (2-pyrrolidin-1-yl-ethyl) amide]",–,63%
